Measured values from PubChem BioAssay (NCI).
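Briefly, cells in 96-well plates were exposed to five compound concentrations for 48 h, and endpoints were estimated by linear interpolation. The concentration for 50% growth inhibition is given as GI50. Definition used: TGI = concentration required for complete inhibition of growth.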

Tests used:
Assay in all cases: growth of human tumour cells (NCI), 48 h
[1] = tested on: 786-0 renal
[2] = tested on: A549 NSCLC
[3] = tested on: ACHN renal
[4] = tested on: CAKI-1 renal
[5] = tested on: CCRF-CEM leukemia
[6] = tested on: DLD-1 colon
[7] = tested on: DMS 114 small cell lung
[8] = tested on: EKVX NSCLC
[9] = tested on: HCC-2998 colon
[10] = tested on: HCT-116 colon
[11] = tested on: HL-60(TB) leukemia
[12] = tested on: HOP-18 NSCLC
[13] = tested on: HOP-62 NSCLC
[14] = tested on: HOP-92 NSCLC
[15] = tested on: HT29 colon
[16] = tested on: IGROV1 ovarian
[17] = tested on: K-562 leukemia
[18] = tested on: KM12 colon
[19] = tested on: KM20L2 colon
[20] = tested on: LOX IMVI melanoma
[21] = tested on: LXFL 529 NSCLC
[22] = tested on: M14 melanoma
[23] = tested on: M19-MEL melanoma
[24] = tested on: MALME-3M melanoma
[25] = tested on: MOLT-4 leukemia
[26] = tested on: NCI-H226 lung
[27] = tested on: NCI-H23 lung
[28] = tested on: NCI-H460 lung
[29] = tested on: NCI-H522 lung
[30] = tested on: OVCAR-3 ovarian
[31] = tested on: OVCAR-4 ovarian
[32] = tested on: OVCAR-5 ovarian
[33] = tested on: OVCAR-8 ovarian
[34] = tested on: RPMI-8226 leukemia
[35] = tested on: RXF 393 renal
[36] = tested on: RXF-631 renal
[37] = tested on: SF-268 CNS
[38] = tested on: SF-295 CNS
[39] = tested on: SF-539 CNS
[40] = tested on: SK-MEL-2 melanoma
[41] = tested on: SK-MEL-28 melanoma
[42] = tested on: SK-MEL-5 melanoma
[43] = tested on: SK-OV-3 ovarian
[44] = tested on: SN12C renal
[45] = tested on: SNB-19 CNS
[46] = tested on: SNB-78 CNS
[47] = tested on: SR leukemia
[48] = tested on: SW-620 colon
[49] = tested on: TK-10 renal
[50] = tested on: U251 CNS
[51] = tested on: UACC-257 melanoma
[52] = tested on: UACC-62 melanoma
[53] = tested on: UO-31 renal
[54] = tested on: XF 498 CNS
[55] = tested on: COLO 205 colon
[56] = tested on: DMS 273 small cell lung
[57] = tested on: HCT-15 colon
[58] = tested on: SNB-75 CNS
[59] = tested on: A498 renal

CCOC(=O)C(=O)Nc1c(C)cccc1CC
TGI [1]: > 100 µM | TGI [2]: > 100 µM | TGI [3]: > 100 µM | TGI [4]: > 100 µM | TGI [5]: > 100 µM | TGI [6]: > 100 µM | TGI [7]: > 100 µM | TGI [8]: > 100 µM | TGI [9]: > 100 µM | TGI [10]: > 100 µM | TGI [11]: > 100 µM | TGI [12]: > 100 µM | TGI [13]: > 100 µM | TGI [14]: > 100 µM | TGI [15]: > 100 µM | TGI [16]: > 100 µM | TGI [17]: > 100 µM | TGI [18]: > 100 µM | TGI [19]: > 100 µM | TGI [20]: > 100 µM | TGI [21]: > 100 µM | TGI [22]: > 100 µM | TGI [23]: > 100 µM | TGI [24]: > 100 µM | TGI [25]: > 100 µM | TGI [26]: > 100 µM | TGI [27]: > 100 µM | TGI [28]: > 100 µM | TGI [29]: > 100 µM | TGI [30]: > 100 µM | TGI [31]: > 100 µM | TGI [32]: > 100 µM | TGI [33]: > 100 µM | TGI [34]: > 100 µM | TGI [35]: > 100 µM | TGI [36]: > 100 µM | TGI [37]: > 100 µM | TGI [38]: > 100 µM | TGI [39]: > 100 µM | TGI [40]: > 100 µM | TGI [41]: > 100 µM | TGI [42]: > 100 µM | TGI [43]: > 100 µM | TGI [44]: > 100 µM | TGI [45]: > 100 µM | TGI [46]: > 100 µM | TGI [47]: > 100 µM | TGI [48]: > 100 µM | TGI [49]: > 100 µM | TGI [50]: > 100 µM | TGI [51]: > 100 µM | TGI [52]: > 100 µM | TGI [53]: > 100 µM | TGI [54]: > 100 µM

[Cl][Sn]([c]1ccccc1)[c]1ccccc1
GI50 [1]: 3.79 µM | TGI [1]: 12.8 µM | GI50 [2]: 17.5 µM | TGI [2]: 36.2 µM | GI50 [3]: 11.9 µM | TGI [3]: 24.2 µM | GI50 [4]: 2.54 µM | TGI [4]: 8.98 µM | GI50 [5]: 1.85 µM | TGI [5]: 5.85 µM | GI50 [55]: 7.45 µM | TGI [55]: 38.2 µM | GI50 [6]: 3.65 µM | TGI [6]: 13.7 µM | GI50 [7]: 3.47 µM | TGI [7]: 19.4 µM | GI50 [56]: 10 µM | TGI [56]: 34 µM | GI50 [8]: 6.57 µM | TGI [8]: 15.5 µM | GI50 [9]: 14.1 µM | TGI [9]: 27.8 µM | GI50 [10]: 6.91 µM | TGI [10]: 22.9 µM | GI50 [57]: 4.48 µM | TGI [57]: 18 µM | GI50 [11]: 2.29 µM | TGI [11]: 6.46 µM | GI50 [12]: 3.27 µM | TGI [12]: 9.24 µM | GI50 [13]: 22.9 µM | TGI [13]: 40.7 µM | GI50 [14]: 3.61 µM | TGI [14]: 8.69 µM | GI50 [15]: 9.99 µM | TGI [15]: 24.2 µM | GI50 [16]: 17.7 µM | TGI [16]: 43.7 µM | GI50 [17]: 2.14 µM | TGI [17]: 7.31 µM | GI50 [18]: 12.4 µM | TGI [18]: 18 µM | GI50 [19]: 14.9 µM | TGI [19]: 30.4 µM | GI50 [20]: 3.81 µM | TGI [20]: 13.5 µM | GI50 [21]: 1.4 µM | TGI [21]: 3.13 µM | GI50 [22]: 8.24 µM | TGI [22]: 24.4 µM | GI50 [24]: 2.19 µM | TGI [24]: 4.66 µM | GI50 [25]: 2.91 µM | TGI [25]: 28.9 µM | GI50 [26]: 15.8 µM | TGI [26]: 29.6 µM | GI50 [27]: 5.19 µM | TGI [27]: 18.1 µM | GI50 [28]: 18.3 µM | TGI [28]: 38.7 µM | GI50 [29]: 0.352 µM | TGI [29]: 1.89 µM | GI50 [30]: 11.4 µM | TGI [30]: 24.1 µM | GI50 [31]: 15.2 µM | TGI [31]: 29.8 µM | GI50 [32]: 13.6 µM | TGI [32]: 27.3 µM | GI50 [33]: 11.5 µM | TGI [33]: 17.2 µM | GI50 [34]: 2.09 µM | TGI [34]: 6.14 µM | GI50 [35]: 1.55 µM | TGI [35]: 3.24 µM | GI50 [36]: 3.86 µM | TGI [36]: 27 µM | GI50 [37]: 4.1 µM | TGI [37]: 16.1 µM | GI50 [38]: 19.2 µM | TGI [38]: 35.2 µM | GI50 [39]: 9.43 µM | TGI [39]: 22.6 µM | GI50 [40]: 2.65 µM | TGI [40]: 11.9 µM | GI50 [41]: 1.58 µM | TGI [41]: 3.62 µM | GI50 [42]: 3.35 µM | TGI [42]: 11.2 µM | GI50 [43]: 18.4 µM | TGI [43]: 32.7 µM | GI50 [44]: 9.18 µM | TGI [44]: 22.9 µM | GI50 [45]: 11.6 µM | TGI [45]: 23.8 µM | GI50 [58]: 6.18 µM | TGI [58]: 19.4 µM | GI50 [46]: 6.96 µM | TGI [46]: 31 µM | GI50 [47]: 3.39 µM | TGI [47]: 17.5 µM | GI50 [48]: 1.95 µM | TGI [48]: 4.49 µM | GI50 [49]: 3.17 µM | TGI [49]: 8.57 µM | GI50 [50]: 10.3 µM | TGI [50]: 23.2 µM | GI50 [51]: 8.25 µM | TGI [51]: 23.1 µM | GI50 [52]: 3.22 µM | TGI [52]: 9.57 µM | GI50 [53]: 17.2 µM | TGI [53]: 30.9 µM | GI50 [54]: 2.68 µM | TGI [54]: 5.22 µM

COC(=O)C12C3C4C1C1C2C3C41I (centres undefined)
TGI [1]: > 100 µM | TGI [59]: > 100 µM | TGI [2]: > 100 µM | TGI [3]: > 100 µM | TGI [4]: > 100 µM | TGI [5]: > 100 µM | TGI [55]: > 100 µM | TGI [6]: > 100 µM | TGI [7]: > 100 µM | TGI [8]: > 100 µM | TGI [9]: > 100 µM | TGI [57]: > 100 µM | TGI [11]: > 100 µM | TGI [12]: > 100 µM | TGI [13]: > 100 µM | TGI [14]: > 100 µM | TGI [15]: > 100 µM | TGI [16]: > 100 µM | TGI [17]: > 100 µM | TGI [19]: > 100 µM | TGI [21]: > 100 µM | TGI [22]: > 100 µM | TGI [23]: > 100 µM | TGI [24]: > 100 µM | TGI [25]: > 100 µM | TGI [26]: > 100 µM | TGI [27]: > 100 µM | TGI [28]: > 100 µM | TGI [30]: > 100 µM | TGI [31]: > 100 µM | TGI [32]: > 100 µM | TGI [33]: > 100 µM | TGI [34]: > 100 µM | TGI [35]: > 100 µM | TGI [36]: > 100 µM | TGI [37]: > 100 µM | TGI [38]: > 100 µM | TGI [39]: > 100 µM | TGI [41]: > 100 µM | TGI [42]: > 100 µM | TGI [43]: > 100 µM | TGI [44]: > 100 µM | TGI [45]: > 100 µM | TGI [46]: > 100 µM | TGI [48]: > 100 µM | TGI [49]: > 100 µM | TGI [50]: > 100 µM | TGI [51]: > 100 µM | TGI [52]: > 100 µM | TGI [53]: > 100 µM | TGI [54]: > 100 µM
